Experimental data as given in patent US20260041640A1 (INCYCLIX BIO, LLC, priority 2023, published 2026).

What was measured:
[1] = Plasma protein binding, mouse; format: in vitro ADME
Source text: (§1) Additionally, the whole blood-to-plasma ratio (KWB/P) in humans is 6.20, which also exceeds the other species tested (Table 7).

[2] = Toxicity and toxicokinetics studies, dog; format: in vivo, beagle dogs
Procedure: Nominal dose values and sampling times were used for calculations. Any concentration reported as BLQ (LLOQ<1.0 ng/mL) was set equal to zero. Toxicokinetic analyses included Cmax, Tmax, AUC0-24, t1/2, RA Cmax, and RA AUC0-24.
Following this, human dose exposure was simulated using a combined whole blood and plasma compartment PK model using allometry and whole blood parameter estimates for the absorption rate constants and bioavailability per animal species. Absolute dose administration was used for modeling. V1, CL, V2, and Q parameters were extrapolated to human using allometric scaling. […] Human body weight was set to 75 kg.

[3] = Plasma protein binding, dog; format: in vitro ADME
Source text: as §1

[4] = First-in-human clinical study: safety and tolerability; format: in vivo
Procedure: All INX-315 tablets were taken at approximately the same time(s) each day.
Cohort 1 enrollment of 6 subjects dosed at 100 mg oral QD was completed in October of 2023.

Structure (SMILES): NS(=O)(=O)c1ccc(Nc2ncc3cc4n(c3n2)C2(CCCCC2)C(=O)NN4)cc1 [INX-315]
- fraction unbound [1]: 0.023
- Absorption rate constant (KA) ([2]; beagle, dog, in vivo): 0.18 h⁻¹
- HED of the highest nonseverely toxic dose (HNSTD) ([2]; dogs): 16,216 mg/day
- safety margin of 100 mg QD starting dose vs HED of HNSTD ([2]; dogs): 160 fold
- fraction unbound [3]: 0.04
- safety issues ([4]; 200 mg QD): no new safety issues
- DLTs ([4]; Cohort 1, 100 mg QD): No DLTs
- changes in complete blood counts or clinical chemistries ([4]; Cohort 1, 100 mg QD): No significant changes
- tolerability ([4]; Cohort 1, 100 mg QD): well tolerated
